Common to all, as to experiment: NCI-60 cell line screen, 48 h
Experiment [1] has as its system XF498.
Experiment [2] has as its system RXF 393.
In experiment [3] the test system is HCC 2998.
Experiment [4] relates to CAKI-1.
Experiment [5] relates to A498.
The test system of experiment [6] is MCF7.
In experiment [7] the test system is M19-MEL.
Experiment [8] concerns HCT-116.
For experiment [9], the system named is HOP-62.
The subject of experiment [10] is KM-20L2.
Experiment [11] concerns HOP-18.
For experiment [12], the system named is NCI-H522.
In experiment [13] the test system is NCI-H226.
In experiment [14] the test system is DMS-273.
Experiment [15] deals with SR.
The subject of experiment [16] is TK-10.
Experiment [17] relates to ACHN.
Experiment [18] deals with RXF 631.
Experiment [19] relates to M14.
The test system of experiment [20] is Hs-578T.

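Dose response: 5 concentrations. Exposure: 48 h. Format: 96-well plates. Endpoint: linear interpolation; highest concentration if not reached. Abbreviation: GI50, concentration required for 50% inhibition of growth.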 The source made the active and inactive calls. Cut-off read from the data, not from the text of the source: active = GI50 up to about 1.1 µM and inactive = higher.

Regarding `CSCSCC(CO)NC(=O)/C=C\c1c(C)[nH]c(=O)[nH]c1=O` (stereo not drawn), the GI50 in [1] was 1.61 µM (inactive); in experiment [2], 26.5 µM (inactive); in [3], 5.57 µM (inactive); in experiment [4], 2.88 µM (inactive); in experiment [5], 23.6 µM (inactive); in experiment [6], 2.19 µM (inactive). In addition, the GI50 in experiment [7] was 9.75 µM (inactive); in experiment [8], 11.4 µM (inactive); in experiment [9] it was 38.8 µM (inactive); in experiment [10] it was 7.76 µM (inactive); in experiment [11], 46.1 µM (inactive); in experiment [12] it was 0.959 µM (active). For the same molecule, the results for the GI50 in [13] and in [14] were 35 µM (inactive) and 37.8 µM (inactive), respectively.

Regarding `COC(=O)[C@@H](O)[C@](O)(CCC(C)C)C(=O)O[C@@H]1C(OC)=C[C@]23CCCN2CCc2cc4c(cc2[C@H]13)OCO4`, the GI50 in experiment [2] is 0.689 µM (active); in experiment [3], 0.233 µM (active); in experiment [4], 1.77 µM (inactive); in [5], 1.48 µM (inactive); in [6], 0.351 µM (active); in experiment [7], 1.18 µM (inactive). Besides, the GI50 in [8] was 0.407 µM (active); in [9], 0.575 µM (active); in experiment [10], 1.5 µM (inactive); in experiment [11], 2.46 µM (inactive); in [12], 0.598 µM (active); in experiment [13] it was 1.64 µM (inactive). Besides, in experiment [14], the GI50 is 0.585 µM (active).

Regarding `NC(=O)C(=O)N/N=C1/c2ccccc2CC1C1(O)C(=O)Nc2c(Cl)cc(Cl)cc21` (stereo not drawn), the GI50 in [1] was > 100 µM (inactive); in [2], 92 µM (inactive); in [3], > 100 µM (inactive); in experiment [4] it was 81.8 µM (inactive); in experiment [5], > 100 µM (inactive); in experiment [7] it was > 100 µM (inactive). Besides, the GI50 was > 100 µM (inactive) in [8]; > 100 µM (inactive) in [9]; > 100 µM (inactive) in experiment [10]; 70.3 µM (inactive) in experiment [15]; > 100 µM (inactive) in experiment [11]; 61.4 µM (inactive) in [12]. For the same molecule, the GI50 in [16], in [13], in experiment [17] and in [14] was > 100 µM (inactive) throughout.

In the case of `N/C(=N\O)N/N=C\c1ccccc1O`, the GI50 in experiment [1] was 1.04 µM (active); in [2] it was 7.98 µM (inactive); in experiment [3], 3.24 µM (inactive); in experiment [4], 3.84 µM (inactive); in experiment [5], 8.95 µM (inactive); in experiment [6], 4.32 µM (inactive). Moreover, the GI50 in [7] was 16.6 µM (inactive); in experiment [8], 4.85 µM (inactive); in experiment [9], 11.2 µM (inactive); in experiment [10] it was 10.2 µM (inactive); in [11] it was 27.2 µM (inactive); in experiment [12], 11.8 µM (inactive). Moreover, the GI50 in [13] is 16 µM (inactive); in [14] it was 4.38 µM (inactive).

For the molecule `CCOC(=O)C1C(c2cc(OC)c(O)c(OC)c2)c2cc3c(cc2OC1(C)O)OCO3` (stereo not drawn), the GI50 is 31 µM (inactive) in [1]; 26 µM (inactive) in experiment [4]; 66.4 µM (inactive) in experiment [7]; 47.3 µM (inactive) in experiment [8]; 14.3 µM (inactive) in experiment [9]; 64.9 µM (inactive) in experiment [10]. For the same molecule, the GI50 was 75.9 µM (inactive) in experiment [18]; 74.3 µM (inactive) in experiment [19]; > 100 µM (inactive) in [11]; > 100 µM (inactive) in [16]; 55.2 µM (inactive) in experiment [17]; 36.9 µM (inactive) in experiment [14].

For the molecule `CC(=O)OC1C=C(C=O)C(O)(C=O)C2(C)CCCC(C)(C)C12` (stereo not drawn), the GI50 in experiment [1] was 1.49 µM (inactive); in experiment [2], 0.491 µM (active); in [3] it was 2.61 µM (inactive); in experiment [4], 1 µM (active); in experiment [5], 1.28 µM (inactive); in [6], 1.89 µM (inactive). Moreover, the GI50 in [7] was 1.23 µM (inactive); in experiment [8] it was 0.989 µM (active); in experiment [9], 6.38 µM (inactive); in experiment [10], 2.11 µM (inactive); in [11], 0.931 µM (active); in experiment [12], 0.456 µM (active). For the same molecule, the GI50 in [13] was 2.69 µM (inactive); in experiment [14], 2.08 µM (inactive).

Consider `Cn1ncc2c(=O)[nH]c(-c3ccccc3)nc21`, for which the GI50 in experiment [1], in experiment [2], in experiment [3], in [4], in experiment [10] and in [18] was > 100 µM (inactive) each time. Besides, the GI50 in experiment [19] was > 100 µM (inactive); in [11], < 0.01 µM (active); in experiment [12], > 100 µM (inactive); in [16], > 100 µM (inactive); in experiment [17], > 100 µM (inactive); in experiment [14], > 100 µM (inactive).

Take `COc1ccc(C2C(=O)C(Cl)N2Nc2nc(C)cc(O)n2)cc1OC` (stereo not drawn): the GI50 was 25.2 µM (inactive) in experiment [2]; 42.6 µM (inactive) in experiment [3]; 42.3 µM (inactive) in experiment [7]; 36.3 µM (inactive) in experiment [8]; 23.6 µM (inactive) in [9]; 37 µM (inactive) in experiment [10]. The GI50 was 25.8 µM (inactive) in experiment [19]; 18.8 µM (inactive) in experiment [15]; 6.41 µM (inactive) in experiment [11]; 43.6 µM (inactive) in [16]; 19.4 µM (inactive) in [17]; 22.1 µM (inactive) in experiment [14].

`CCOC(=O)c1c(NC(=S)NCc2ccccc2)sc2c1CCN(C)C2`: the GI50 in experiment [20] was 64.4 µM (inactive); in experiment [4], > 100 µM (inactive); in experiment [5], 59.6 µM (inactive); in [6], 52.6 µM (inactive); in experiment [8] it was 67.3 µM (inactive); in experiment [9] it was > 100 µM (inactive). In addition, the GI50 in experiment [19] is > 100 µM (inactive); in experiment [16], 64.9 µM (inactive); in experiment [13] it was > 100 µM (inactive); in experiment [17], 89.5 µM (inactive).

As to `CCCCCCCCC1=CCC(CN(C)C)C1=O` (stereo not drawn), the GI50 in experiment [2] was 19.7 µM (inactive); in experiment [3], 14 µM (inactive); in experiment [5] it was > 43.9 µM (inactive); in [6], 4.69 µM (inactive); in experiment [7], 17.8 µM (inactive); in [8] it was 19.4 µM (inactive). In addition, the GI50 in experiment [9] was > 31.6 µM (inactive); in experiment [10], 21.9 µM (inactive); in [12], 16.7 µM (inactive); in experiment [13], > 51.4 µM (inactive); in [14] it was 18.7 µM (inactive).

With `CCCOC(=O)CNC(=O)OC(C)(C)C`, the GI50 in [1], in experiment [2], in [3], in [4], in experiment [7] and in experiment [8] was > 100 µM (inactive) each time. Moreover, the GI50 in experiment [9] is > 100 µM (inactive); in [10], > 100 µM (inactive); in experiment [18] it was > 100 µM (inactive); in experiment [19], > 100 µM (inactive); in [15], > 100 µM (inactive); in experiment [11], 0.897 µM (active). For the same molecule, the GI50 in experiment [12], in experiment [16], in experiment [13], in experiment [17] and in [14] was > 100 µM (inactive) throughout.

Take `O=C1OC(c2ccccc2)=N/C1=C\c1cccnc1`: the GI50 in [20], in [2], in experiment [3], in [6], in [9] and in [19] was > 100 µM (inactive) in each case. The GI50 in experiment [15] was 33 µM (inactive); in experiment [12], > 100 µM (inactive); in experiment [16], > 100 µM (inactive); in experiment [13], > 100 µM (inactive); in experiment [17], > 100 µM (inactive).

On to `CC(C)=CCc1c(O)ccc2ccc(=O)oc12` [OSTHENOL], for which the GI50 in experiment [2] is 38.5 µM (inactive); in experiment [3] it was 45.8 µM (inactive); in [4], > 61.5 µM (inactive); in [5] it was 54.8 µM (inactive); in experiment [6], 34.9 µM (inactive); in experiment [7], 47.1 µM (inactive). Moreover, the GI50 in [8] was 57.4 µM (inactive); in [10], > 100 µM (inactive); in experiment [11] it was 43.6 µM (inactive); in [12], 48.2 µM (inactive); in experiment [13] it was 47.6 µM (inactive); in [14] it was 63.7 µM (inactive).

For the origin of these results see ChEMBL document CHEMBL1201862, “PubChem BioAssay data set” (2004).
